One data set deals with Caco-2 cells. The data set is described as follows: Trans-epithelial electrical resistance (TEER), integrity of epithelial cell layer. Type of data set: cell-based, human. To be noted: Caco-2 monolayer, monitored for 12 hours.
For data set [1], the system named is diabetic model mice. Kind of data set: Blood glucose of diabetic model mice after oral administration of aggregate suspension. Type of data set: in vivo, C57BL/6J mice. As for the experimental part: Change in blood glucose level of diabetic model mice after administered orally with the aggregate of insulin and chalcogen heterocyclic compound (1) Streptozotocin (STZ) was intraperitoneally injected into 6-8 week-old C57BL/6J mice for five consecutive days to induce pancreatic islet B-cell damage. On the 17th day after the first injection, the blood glucose concentration of the mice was measured, and the diabetic mouse model was considered to be successfully established when the blood glucose concentration was higher than 300 mg/dL. (2) After the diabetic model mice were orally administered with a suspension of the above aggregate at an amount of insulin of 80 U/kg, blood was collected from the tail vein of the mice at different time points to monitor the change in blood glucose. In control experiment 1, an equal amount of free insulin was administered orally to the diabetic model mice. In control experiment 2, an equal volume of physiological saline was administered orally to the diabetic model mice. In control experiment 3, insulin was injected subcutaneously to the diabetic model mice at 5 U/kg. Change in blood glucose level in diabetic model mice after administration of a suspension of the aggregate of insulin and chalcogen heterocyclic compound: The diabetic model mice were orally administered with a suspension of the aggregate 2 obtained above at an amount of insulin of 50 U/kg, and then the blood was collected from the tail vein of the mice at different time points to monitor the change in blood glucose concentration. In control experiment 1, an equal volume of physiological saline was administered orally to the diabetic model mice, and in control experiment 2, insulin was injected subcutaneously to the diabetic model mice at 5 U/kg. Change in blood glucose level in diabetic model mice after administration of a suspension of the aggregate of insulin and chalcogen heterocyclic compound: The diabetic model mice were orally administered with a suspension of the above aggregate 3 at an amount of insulin of 50 U/kg. […]

In data set [2] the test system is diabetic model mice. The data set is described as follows: Blood glucose of diabetic model mice after oral administration of enteric-coated capsule loading lyophilized aggregate. Type of data set: in vivo, C57BL/6J mice. As for the experimental part: (1) Streptozotocin (STZ) was intraperitoneally injected into 6-8 week-old C57BL/6J mice for five consecutive days to induce pancreatic islet B-cell damage. On the 17th day after the first injection, the blood glucose concentration of the mice was measured, and the diabetic mouse model was considered to be successfully established when the blood glucose concentration was higher than 300 mg/dL. (2) After the diabetic model mice were orally administered with a suspension of the above aggregate at an amount of insulin of 80 U/kg, blood was collected from the tail vein of the mice at different time points to monitor the change in blood glucose. In control experiment 1, an equal amount of free insulin was administered orally to the diabetic model mice. In control experiment 2, an equal volume of physiological saline was administered orally to the diabetic model mice. In control experiment 3, insulin was injected subcutaneously to the diabetic model mice at 5 U/kg. Change in blood glucose level of diabetic model mice after orally administered with an enteric-coated capsule loading the aggregate of insulin and chalcogen heterocyclic compound (1) The aggregate was prepared into a lyophilized powder and loaded in an enteric-coated capsule. In control experiment 1, an equal amount of free insulin was loaded in an enteric-coated capsule. (2) A diabetic mice model was established according to the method as above. The mice were administered with recombinant insulin at an amount of 20 U/kg, after which the blood was taken from the tail vein of the mice at different time points to monitor the change in blood glucose concentration. In control experiment 2, insulin was injected subcutaneously to the diabetic model mice at 5 U/kg.

The subject of another data set is diabetic model pigs. The data set is described as follows: Blood glucose of diabetic model pigs after oral administration of enteric-coated capsule loading lyophilized aggregate. Type of data set: in vivo, Bama mini-pigs. To be noted: oral enteric-coated capsule loading free insulin, 20 U/kg. As for the experimental part:
Change in blood glucose level of diabetic model pigs after orally administered with an enteric-coated capsule loading the aggregate of insulin and chalcogen heterocyclic compound (1) Streptozotocin (STZ, with a concentration of 75 mg/mL) was infused intravenously to 4-month-old Bama mini-pigs at 150 mg/kg to induce pancreatic islet B-cell damage. On the 7th day after the first infusion, the blood glucose concentration of the pigs was measured, and the diabetic pig model was considered to be successfully established when the blood glucose concentration was higher than 300 mg/dL. (2) The aggregate was prepared into a lyophilized powder and loaded in an enteric-coated capsule. In control experiment 1, an equal amount of free insulin was loaded in an enteric-coated capsule. (3) The diabetic model pigs were administered with recombinant insulin at an amount of 20 U/kg, after which the blood was taken from the jugular vein of the pigs at different time points to monitor the change in blood glucose concentration. (4) The diabetic model pigs were given normal food at the 3rd and 8th hour after administration, and the food bowl was removed after 15 minutes.

Setting [3] is: subcutaneous injection 5 U/kg, 15 minutes after injection.
The mark [4] stands for this setting: subcutaneous injection 5 U/kg, within 15-180 minutes.

Protocol for Caco-2 cells: Transcellular transport of the aggregate of insulin and chalcogen heterocyclic compound in intestinal model in vitro and integrity of epithelial cell layer
(1) Caco-2 cells were plated in a 24-well Transwell chamber and cultured for 21 days. […] (2) The aggregate was added to the upper Transwell chamber at 20 μg/mL, the concentration of insulin in the liquid in the lower Transwell chamber was detected every 1 hour, and the TEER was monitored continuously for 12 hours.

As for `CCCCCCCCCC(=O)[O-].[Na+]` [sodium caprate], the “change in TEER” value in the data set on Caco-2 cells is “drastically reduced”.
Take “free insulin: human recombinant insulin, used unencapsulated as oral control or subcutaneous injection control”: the “reduction in blood glucose concentration” value is “little reduction” in the data set on diabetic model mice [1] (oral, equal amount of free insulin (80 U/kg)); “significant reduction” with diabetic model mice [1] (setting [3]); “little reduction” in the data set on diabetic model mice [2] (oral enteric-coated capsule loading free insulin, 20 U/kg); “little reduction” in the data set on diabetic model pigs. For the same molecule, the “reduction of blood glucose concentration” value with diabetic model mice [1] (setting [4]) and in the data set on diabetic model mice [2] (setting [4]) was 30-50% in each case. For the same molecule, in the data set on diabetic model mice [2] (setting [3]), the “reduction in blood glucose” value was “significant reduction”.

(Values after patent US20250242032A1, “AGGREGATE FORMED BY MEANS OF ASSEMBLING CHALCOGEN HETEROCYCLIC COMPOUND AND INSULIN, AND PREPARATION METHOD THEREFOR, AND INSULIN ORAL PREPARATION” (FUZHOU UNIVERSITY, priority 2021, published 2025).)
